Values quoted from earlier work as cited in paper PMC7673724 (Science Advances, 2020).

Test system: Rubisco
Conditions: control used to normalize array signal (one unit of binding)

## TRSVLPANWRQELESLRN [control EPYC1 peptide]
  Binding to Rubisco of the positive control peptide: known to bind to Rubisco
